Test results reported in patent US20120083522A1, “MODULATION OF INFLAMMATORY RESPONSES BY FACTOR XI” (Isis Pharmaceuitcals, inc., priority 2009, published 2012).
Entries after “also recorded” stand apart in the source; their conditions may differ. In the oligonucleotide strings, read from the 5' end, every base follows the letter of its sugar. An asterisk marks phosphorothioate; unmarked linkages are phosphodiester. Other units and linkages are bracketed, terminal groups are in braces. A string of capitals states the bases alone. e = 2'-O-(2-methoxyethyl) (MOE); [5mC] = 5-methylcytosine; d = 2'-deoxy (DNA)

Legend:
[1] = system: collagen-induced arthritis (CIA) model; experiment: Arthritis Study A: collagen-induced arthritis (Example 11); format: in vivo, DBA/1J mice; settings: for incidence of CIA (in words): 20 mg/kg
Method: The effect of inhibition of Factor XI and its role in fibrin accumulation in the joints leading to joint inflammation and rheumatoid arthritis was evaluated in a murine collagen-induced arthritis (CIA) model. […] Arthritis induced in mice administered collagen can be visually assessed and clinically scored as described by Marty et al. (J Clin Invest, 107:631-640, 2001) where 1 point is given for each swollen digit except the thumb (maximum, 4), 1 point is given for the tarsal or carpal joint, and 1 point is given for the metatarsal or metacarpal joint with a maximum score of […]. Each paw was graded individually, the cumulative clinical arthritic score per mouse reaching a maximum of 22 points
In a group of 15 DBA/1J mice, 20 mg/kg of ISIS 404071 was injected subcutaneously twice a week for 12 weeks. One control group of 15 mice was injected with 20 mg/kg of ISIS 403102 twice a week for 12 weeks. Two control groups of 15 mice each were injected with PBS twice a week for 12 weeks. Two weeks after the first oligonucleotide dose, type II bovine collagen (Chondrex Inc, Redmond, Wash.) was mixed with complete Freund's adjuvant, homogenized on ice and the emulsion, containing 100 μg of collagen, was injected subcutaneously at the base of the tail in the Factor XI group, the Factor VII group and one of the PBS control groups. A booster injection containing 100 μg collagen type II in incomplete Freund's adjuvant was injected subcutaneously at the base of the tail at a different injection site on day 21 after the first collagen injection in these groups.
Starting 35 days from the first collagen injection, mice in all groups were examined daily for the visual appearance of arthritis, such as swelling and stiffness, in peripheral joints. The results are presented in Table 20 (expressed as a percentage of the PBS control) and in FIGS. 1-3.
‘Incidence of CIA’ refers to the percentage of mice in each group that had CIA at day 40. The ‘percentage of paws affected’ refers to the percentage of paws out of a total of 60 paws in each group of mice that were affected with arthritis. ‘Average number of affected paws’ refers to the number of affected paws in mice that were diagnosed to have arthritis. The ‘clinical severity of CIA’ was scored as described by Marty et al. (J Clin Invest, 107:631-640, 2001) and as follows: 1 point for each swollen digit except the thumb (maximum, 4), 1 point for the tarsal or carpal joint, and 1 point for the metatarsal or metacarpal joint with a maximum score of 6 for a hindpaw and 5 for a forepaw. Each paw was graded individually, the cumulative clinical arthritic score per mouse reaching a maximum of 22 points.

[2] = system: IFN-γ, IL-10, IL-12, IL-1β, IL-2, IL-4, IL-5, TNF-α, KC; experiment: Colitis Study E: cytokine levels in colon (multiplex ELISA); format: in vivo, Swiss Webb mice; settings: for IFN-γ level in the colon / IL-1β level in the colon / IL-2 level in the colon / IL-4 level in the colon / IL-5 level in the colon / IL-10 level in the colon / IL-12 level in the colon / KC level in the colon / TNF-α level in the colon: DSS-treated mice
Method: Two groups 8 Swiss Webb mice were dosed with 40 mg/kg of ISIS 404071 injected subcutaneously twice a week for 3 weeks. Two control groups of 8 Swiss Webb mice were dosed with PBS subcutaneously twice a week for 3 weeks. Both the ASO treated groups and one of the control groups were then given 4% DSS in distilled water for 7 days ad libitum. One of the ASO and DSS treated groups was also given intravenous injections of 20 μg of recombinant human Factor XI protein (Haematologic Technologies Inc.) for 7 consecutive days, starting the day before DSS treatment. Mice were sacrificed at the end of the study on day 7 after DSS was administered.
The cytokine levels of IFN-γ, IL-10, IL-12, IL-1β, IL-2, IL-4, IL-5, TNF-α, and keratinocyte chemoattractant (KC) were measured in the colon of the mice groups at the end of the study on day 7 after DSS was administered. Colons were homogenized on ice in PBS supplemented with protease inhibitors (Sigma, St. Louis, Mo.) and extracted with rotation at 4° C. for 1 hour. After removal of insoluble material by centrifugation, colon homogenates were used for the cytokine analysis by multiplex ELISA (Mouse TH1/TH2 9-Plex Ultra-Sensitive Kit, Meso Scale Discovery, Gaithersburg, Md.) according to the manufacture's protocol. Cytokine levels in colon extracts were normalized to the protein concentration measured by protein assay kit (BioRad, Hercules, Calif.). The levels of pro-inflammatory cytokines, IFN-γ, IL-1β, IL-10, IL-2, IL-5, TNF-α, and KC were elevated by DSS administration, and were decreased by treatment with ISIS 404071.

[3] = system: Factor XI mRNA; experiment: Colitis Study F: Factor XI mRNA in liver and colon; format: in vivo, Swiss Webb mice; settings: DSS-treated mice, 50 mg/kg, percent of the PBS treated control
Method: In a first group of 8 Swiss Webb mice, 50 mg/kg of ISIS 404071 was injected subcutaneously twice a week for 3 weeks. Two control groups of 8 mice each were injected with PBS twice a week for 3 weeks. After the oligonucleotide treatment, 4% DSS in water was administered ad libitum for 7 days to the experimental group and one PBS control group. Mice were sacrificed at the end of the study on day 7 after DSS was administered.
The effect of antisense inhibition in the liver and colon levels of Factor XI mRNA after treatment by ISIS 404071 is presented in Table 48 (as a percent of the PBS treated control).

## TGGTAATCCACTTTCAGAGG (eT*eG*eG*eT*eA*dA*dT*d[5mC]*d[5mC]*dA*d[5mC]*dT*dT*dT*d[5mC]*eA*eG*eA*eG*eG) [ISIS 404071, 5-10-5 MOE gapmer targeting murine Factor XI, target start site 869]
[1]; Arthritis Study A
  incidence of CIA (in words): significantly inhibit the incidence of CIA
[1]; Arthritis Study A, listed as Factor XI ASO
  incidence of CIA (in words): lower incidence of CIA
[1]; Arthritis Study A, FIG. 1B and 2A, listed as Factor XI ASO
  affected paws (in words): lower incidence of affected paws; also recorded: fewer affected paws on average
[1]; Arthritis Study A, FIG. 2B
  arthritis severity (in words): less severe arthritis than the control mice
[1]; Arthritis Study A, FIG. 3
  timeline of CIA incidence (in words): developed CIA at a later stage with fewer affected mice
[1]; DBA/1J mice, 20 mg/kg s.c. twice a week for 12 weeks, in mice diagnosed with arthritis
  Average no. of paws affected: 1
[1]; DBA/1J mice, 20 mg/kg s.c. twice a week for 12 weeks, out of 60 paws per group
  % of paws affected: 3%
[1]; DBA/1J mice, 20 mg/kg s.c. twice a week for 12 weeks, percentage of mice in group with CIA at day 40
  % of CIA: 13%
[1]; DBA/1J mice, 20 mg/kg s.c. twice a week for 12 weeks, score of Marty et al., maximum 22 points
  Clinical severity of CIA: 1
[2]; Colitis Study E, day 7
  pro-inflammatory cytokine levels in colon: IFN-γ, IL-1β, IL-10, IL-2, IL-5, TNF-α, KC (in words): decreased
[2]; day 7, no rFXI
  IFN-γ level in the colon: 1.10 pg/mg
  IL-1β level in the colon: 50 pg/mg
  IL-2 level in the colon: 0.11 pg/mg
  IL-4 level in the colon: 0.012 pg/mg
  IL-5 level in the colon: 0.04 pg/mg
  IL-10 level in the colon: 4.7 pg/mg
  IL-12 level in the colon: 64 pg/mg
  KC level in the colon: 27 pg/mg
  TNF-α level in the colon: 0.24 pg/mg
[2]; day 7, plus rFXI 20 ug/day
  IFN-γ level in the colon: 4.51 pg/mg
  IL-1β level in the colon: 103 pg/mg
  IL-2 level in the colon: 0.28 pg/mg
  IL-4 level in the colon: 0.004 pg/mg
  IL-5 level in the colon: 0.17 pg/mg
  IL-10 level in the colon: 5.8 pg/mg
  IL-12 level in the colon: 96 pg/mg
  KC level in the colon: 62 pg/mg
  TNF-α level in the colon: 0.91 pg/mg
[3]
  Factor XI mRNA levels in the Colon: 148 % of normal
  Factor XI mRNA levels in the Liver: 24 % of normal
